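Exposure lasted 48 hours, with cells grown in 96-well plates and compounds tested at five concentrations. Here, GI50 denotes the concentration required for 50% inhibition of growth.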 Calls of active or inactive are those of the source. No stated cut-off is given here; in the data, active = GI50 up to about 1.1 µM and inactive = higher.
Legend:
Test in all cases: inhibition of tumour cell growth, NCI panel, 48 h
NCI-H226 = system: NCI-H226
OVCAR-4 = system: OVCAR-4
CCRF-CEM = system: CCRF-CEM
HT-29 = system: HT-29
A549 = system: A549
OVCAR-8 = system: OVCAR-8
HCT-116 = system: HCT-116
SR = system: SR
RPMI-8226 = system: RPMI-8226
OVCAR-5 = system: OVCAR-5
IGROV-1 = system: IGROV-1
TK-10 = system: TK-10
SNB-19 = system: SNB-19
HOP-62 = system: HOP-62
EKVX = system: EKVX
A498 = system: A498

Measured: GI50

COc1ccc2c(c1)O[C@@H]1c3ccc(OC)cc3OC[C@H]21
inactive: NCI-H226 21.5 µM | OVCAR-4 29.2 µM | CCRF-CEM 27.2 µM | HT-29 > 10 µM | A549 29.2 µM | OVCAR-8 42.1 µM | HCT-116 27.7 µM | SR 22.9 µM | RPMI-8226 26.9 µM | OVCAR-5 45.3 µM | IGROV-1 37 µM | TK-10 35.6 µM | SNB-19 54.3 µM | HOP-62 72.8 µM

N#Cc1c(-c2ccccc2)c(-c2ccccc2)cc2c(=O)c3ccc(Cl)cc3[nH]c12
inactive: NCI-H226 > 100 µM | EKVX > 100 µM | CCRF-CEM > 100 µM | HT-29 > 100 µM | A549 > 100 µM | OVCAR-8 > 100 µM | HCT-116 > 100 µM | SR > 100 µM | RPMI-8226 > 100 µM | OVCAR-5 > 100 µM | IGROV-1 > 100 µM | TK-10 > 100 µM | SNB-19 > 100 µM | HOP-62 > 100 µM

C[N+](C)(C)CC(=O)NC(=O)N/N=C\C(CC#N)CN(Cc1ccccc1)Cc1ccccc1 (centres undefined)
inactive: NCI-H226 37.5 µM | OVCAR-4 > 100 µM | EKVX > 100 µM | CCRF-CEM > 100 µM | HT-29 > 100 µM | A549 > 100 µM | OVCAR-8 > 100 µM | HCT-116 > 100 µM | SR > 100 µM | OVCAR-5 > 100 µM | IGROV-1 > 100 µM | TK-10 > 100 µM | SNB-19 > 100 µM | HOP-62 > 100 µM | A498 > 100 µM

N#Cc1ccc(Cc2ccccn2)cc1Cl
inactive: NCI-H226 > 100 µM | OVCAR-4 > 100 µM | EKVX > 100 µM | CCRF-CEM > 100 µM | HT-29 > 100 µM | A549 > 100 µM | OVCAR-8 > 100 µM | SR > 100 µM | OVCAR-5 > 100 µM | IGROV-1 > 100 µM | TK-10 > 100 µM | SNB-19 > 100 µM | HOP-62 > 100 µM

COC(=O)c1cc2c(=O)n(C)c3ccccc3n2c1C(=O)OC
inactive: NCI-H226 30.3 µM | OVCAR-4 > 100 µM | EKVX 26.9 µM | CCRF-CEM > 100 µM | HT-29 67.5 µM | A549 66.4 µM | OVCAR-8 35.8 µM | RPMI-8226 71.9 µM | OVCAR-5 > 100 µM | IGROV-1 56.6 µM | TK-10 25.6 µM | SNB-19 34.7 µM | HOP-62 16.9 µM | A498 27.2 µM

COc1ccc2[nH]cc(CCNC(=O)[C@](O)(Cc3cn(C)c4ccccc34)[C@@]3(O)OCC(O)C3O)c2c1 (some centres undefined)
inactive: NCI-H226 > 100 µM | OVCAR-4 > 100 µM | EKVX > 100 µM | CCRF-CEM 35.8 µM | HT-29 > 100 µM | A549 > 100 µM | OVCAR-8 > 100 µM | HCT-116 47.3 µM | SR > 100 µM | RPMI-8226 39.4 µM | OVCAR-5 > 100 µM | IGROV-1 > 100 µM | TK-10 > 100 µM | SNB-19 > 100 µM | HOP-62 > 100 µM

COC(=O)c1ccc(C=C(C#N)C#N)cc1
inactive: NCI-H226 24 µM | OVCAR-4 20.6 µM | EKVX 33.8 µM | CCRF-CEM 21.5 µM | HT-29 33.4 µM | A549 > 100 µM | OVCAR-8 21.9 µM | HCT-116 17.1 µM | RPMI-8226 22.5 µM | OVCAR-5 > 100 µM | IGROV-1 28.4 µM | TK-10 27.9 µM | SNB-19 38.5 µM | HOP-62 27 µM | A498 > 100 µM

CC1=CCC23C(C1)OC(Br)(C=CC2(C)O)C3(C)C (centres undefined)
inactive: NCI-H226 > 100 µM | OVCAR-4 > 100 µM | EKVX > 100 µM | CCRF-CEM > 100 µM | HT-29 > 100 µM | A549 > 100 µM | OVCAR-8 > 100 µM | HCT-116 > 100 µM | OVCAR-5 > 100 µM | IGROV-1 > 100 µM | TK-10 > 100 µM | A498 > 100 µM

COC1=CC(=O)C2(C=C1OC)OC[C@H]1Oc3c(ccc4c3C=CC(C)(C)O4)C(=O)[C@H]12 (some centres undefined)
inactive: EKVX 27.4 µM | CCRF-CEM 28.1 µM | HT-29 49.2 µM | A549 42.5 µM | OVCAR-8 37.5 µM | HCT-116 28.4 µM | RPMI-8226 22.6 µM | OVCAR-5 > 100 µM | IGROV-1 40.3 µM | TK-10 79.3 µM | SNB-19 47 µM | HOP-62 92.7 µM | A498 63.7 µM

O=C1CC[C@H](NC(=O)Cc2ccccc2)C(=O)N1 [ANTINEOPLASTON A10]
inactive: NCI-H226 > 1250 µM | OVCAR-4 > 1250 µM | EKVX > 1250 µM | CCRF-CEM > 1250 µM | HT-29 > 1250 µM | A549 > 1250 µM | OVCAR-8 > 1250 µM | HCT-116 > 1250 µM | SR > 1250 µM | RPMI-8226 > 1250 µM | OVCAR-5 > 1250 µM | IGROV-1 > 1250 µM | TK-10 > 1250 µM | SNB-19 > 1250 µM | HOP-62 > 1250 µM

CC[C@H]1CC(=O)c2c(cc3c(c2O)C(=O)c2ccccc2C3=O)[C@@]1(C#N)C(=O)OC(C)(C)C
inactive: NCI-H226 3.32 µM | EKVX 4.94 µM | HT-29 3.37 µM | A549 3.27 µM | OVCAR-8 2.62 µM | HCT-116 2.7 µM | SR 3.66 µM | RPMI-8226 3.33 µM | OVCAR-5 10.3 µM | IGROV-1 2.4 µM | TK-10 4.78 µM | SNB-19 3.79 µM | HOP-62 1.77 µM

O=C1[C@@H]2C3c4ccccc4C([C@@H]2C(=O)N1c1ccccc1)S3(=O)=O
inactive: NCI-H226 > 100 µM | EKVX > 100 µM | CCRF-CEM 32.1 µM | HT-29 > 100 µM | OVCAR-8 > 100 µM | HCT-116 > 100 µM | SR > 100 µM | RPMI-8226 > 100 µM | OVCAR-5 > 100 µM | IGROV-1 > 100 µM | TK-10 > 100 µM | SNB-19 48.8 µM

Cc1cc([N+](=O)[O-])c(C)c2c1[nH]c1ccc(O)cc12
inactive: NCI-H226 > 100 µM | OVCAR-4 > 100 µM | EKVX > 100 µM | CCRF-CEM 23.4 µM | HT-29 > 100 µM | A549 > 100 µM | OVCAR-8 > 100 µM | HCT-116 > 100 µM | SR 28.8 µM | RPMI-8226 11.1 µM | OVCAR-5 > 100 µM | TK-10 > 100 µM | SNB-19 > 100 µM | HOP-62 > 100 µM

Cc1ccc(/N=N/C(C(=O)c2ccccc2)C(=O)c2ccccc2)cc1
inactive: NCI-H226 17.6 µM | OVCAR-4 13.1 µM | EKVX 30.7 µM | CCRF-CEM 10.9 µM | HT-29 22 µM | A549 27.3 µM | OVCAR-8 28.6 µM | HCT-116 14.9 µM | RPMI-8226 16.9 µM | OVCAR-5 22.2 µM | IGROV-1 31.2 µM | TK-10 41.4 µM | SNB-19 19 µM | HOP-62 21.1 µM | A498 27.4 µM

CCOC(=O)NC/C=C/COC1CCCCO1 (centres undefined)
inactive: NCI-H226 > 100 µM | OVCAR-4 > 100 µM | CCRF-CEM > 100 µM | A549 > 100 µM | OVCAR-8 > 100 µM | HCT-116 > 100 µM | SR > 100 µM | RPMI-8226 > 100 µM | IGROV-1 > 100 µM | TK-10 > 100 µM | SNB-19 > 100 µM | HOP-62 > 100 µM | A498 > 100 µM

COc1ccc(/C=C2\C(=O)Nc3ccccc32)cc1OC
inactive: NCI-H226 > 100 µM | OVCAR-4 97.3 µM | EKVX > 100 µM | CCRF-CEM > 100 µM | HT-29 > 100 µM | A549 > 100 µM | OVCAR-8 > 100 µM | HCT-116 > 100 µM | RPMI-8226 23.1 µM | OVCAR-5 > 100 µM | IGROV-1 > 100 µM | TK-10 > 100 µM | SNB-19 38.5 µM | HOP-62 > 100 µM | A498 > 100 µM

O=C1[C@@H]2C(c3ccccc3Br)=NO[C@@H]2C(=O)N1c1ccc(Cc2ccc(N3C(=O)[C@H]4C(c5ccccc5Br)=NO[C@H]4C3=O)cc2)cc1
inactive: NCI-H226 96.4 µM | OVCAR-4 > 100 µM | EKVX > 100 µM | CCRF-CEM > 100 µM | HT-29 > 100 µM | A549 > 100 µM | OVCAR-8 > 100 µM | RPMI-8226 > 100 µM | OVCAR-5 > 100 µM | IGROV-1 > 100 µM | TK-10 > 100 µM | HOP-62 > 100 µM | A498 > 100 µM

O=C(N/C(=C\c1ccc(Cl)cc1)c1nc2ccccc2[nH]1)c1ccccc1
inactive: NCI-H226 22.2 µM | OVCAR-4 14.7 µM | EKVX 26.9 µM | CCRF-CEM 20 µM | HT-29 27.8 µM | A549 25.4 µM | OVCAR-8 24.5 µM | HCT-116 13.7 µM | RPMI-8226 16.7 µM | OVCAR-5 37.2 µM | IGROV-1 19.4 µM | TK-10 30.3 µM | SNB-19 27.2 µM | A498 21.8 µM

NC(=O)/N=C1/CCC2C3CCCC2C13
inactive: NCI-H226 81.5 µM | OVCAR-4 > 100 µM | EKVX > 100 µM | CCRF-CEM > 100 µM | HT-29 > 100 µM | A549 > 100 µM | OVCAR-8 > 100 µM | HCT-116 > 100 µM | SR > 100 µM | RPMI-8226 > 100 µM | OVCAR-5 > 100 µM | IGROV-1 > 100 µM | TK-10 > 100 µM | SNB-19 > 100 µM | HOP-62 > 100 µM

— ChEMBL document CHEMBL1201862, “PubChem BioAssay data set” (2004)
